“And” between values parts separate entries of the source, which are not always exact repeats. Identical values can stand only once. Like-named read-outs stand apart in the source and are kept apart here.
Tests used:
[1] = Pharmacokinetic profile in Sprague Dawley rats (IV and PO); type: in vivo; settings: Mean + SD (n = 3); for F (oral bioavailability) / bioavailability: PO 5 mg/kg vs IV 1 mg/kg; for half-life / Cmax / bioavailability: Sprague Dawley; for half-life / Cmax / bioavailability / C0 / AUC(0-inf) / AUC(0-t) / clearance / MRT inf / Tmax: rat, plasma; for bioavailability: read-out: F (oral bioavailability); for clearance: read-out: Cl_obs
Experimental: To evaluate the pharmacokinetic profile by oral (PO) and intravenous (IV) administration routes we used 6 to 8-week old Sprague Dawley rats weighing approximately 200-330g (n = 3 per study group). Compounds were administered at 1mg/kg in 5% Cremophor EL and 20% PEG400 in water for IV and 5mg/kg in PBS for PO. All dose formulation was performed at room temperature. Animals were fasted overnight prior to dosing and were re-fed approximately 4 hours after dosing. For PO, 0.2ml of blood was collected pre- and 0.5, 1, 2, 4 8 12 and 24-hours after drug delivery and transferred to EDTA-K2 BD Vacutainer plastic blood collection tubes. IV samples were collected pre-injection and 0.08, 0.25, 0.5, 1, 2, 4, 8, 12, 24-hours post injection. Blood samples were centrifuged at 2,000 g for 5 minutes at 4°C to obtain plasma. Plasma samples were stored at -75±15°C prior to analysis and then thawed and analyzed by LC-MS/MS method and pharmacokinetic calculations were performed using WinNolin (Phoenix, version 6.4). For IV administration: T1/2, C0, AUClast, AUCinf, MRT, Cl, Vss, and number of points for regression were determined. For PO administration: T1/2, Cmax, Tmax, AUCinf, AUClast, F(0-∞) %, and number of points for regression were determined. Data are reported as mean and standard deviation.

[2] = test system: HEK293 cells stably transduced with the human OCT3 transporter; experiment: Cellular oxygen consumption rate (OCR), MitoXpress Xtra; type: cell-based; settings: HEK293 cells expressing human OCT3
Outline: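 HEK293 cells stably expressing human OCT3, treated with four compound concentrations; oxygen consumption followed by MitoXpress Xtra TR-F lifetime (340/650 nm) every 2 min for 2 h. Lifetime slope from the linear portion taken as OCR; FCCP (1 μM) as stimulated control, differences versus DMSO by t-test.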

[3] = test system: Salmonella typhimurium TA100; settings: for Mean Revertant Colony Counts TA-100 SP9+: with S9; for Mean Revertant Colony Counts TA-100 S9-: without S9; for fold increase in the mean number of revertant colonies, TA100: any concentration tested, vs negative control
[4] = Metabolic stability in human liver microsomes; type: in vitro ADME; settings: for Remaining Percentage of 60 min (%), Human, Tested Sample: 0.5mg/ml microsomes and 1mM NADPH; for Remaining Percentage of 60 min (%), Human, Negative Control: 0.5mg/ml microsomes without NADPH; for Remaining Percentage of 60 min (%), Human, Heat-inactivated Control: heat inactivated microsomes without NADPH
Experimental: Three experiments were performed with 1) 0.5mg/ml microsomes and 1mM NADPH, 2) 0.5mg/ml microsomes without NADPH and 3) 0.5mg/ml heat inactivated microsomes without NADPH in 100mM phosphate buffer, containing 5mM magnesium chloride. […] At the indicated time points, 50μl samples were removed and stopped by addition of 4 volumes of cold acetonitrile with internal standards, 100nM alprazolam, 200nM labetalol and 2μM ketoprofen. The samples were centrifuged at 3,220 g for 40 minutes and aliquots of 100μl were subsequently diluted with 100μl of ultra-pure water and analyzed by LC/MS/MS using a (Shimadzu corporation) LC system coupled to a Shimadzu Triple Quad 5500 mass spectrometer with an ESI interface. The LC system used a Waters XSelect HSS T3 C18, 2.5μm, 2.1 x 50 mm column eluted with one of two methods using mobile phases A (water, 0.1% formic acid) and B (acetonitrile, 0.1% formic acid). […] The Shimadzu Triple Quad 5500 MS was operated with the following parameters: Ion source: Turbo spray; Ionization mode: ESI; Scan type: MRM; Collision gas: 10 L/min; Curtain gas: 30 L/min; Nebulize gas: 50 L/min; Auxiliary gas: 50 L/min; Temperature: 500°C; Ionspray voltage: +5500 V (positive MRM). All experiments were performed in duplicate. Data were analyzed using Microsoft excel, and peak areas were determined from extracted ion chromatograms.

PH5CH8 liver cells = experiment: High-throughput hepatic de novo lipogenesis (DNL) assay, high content imaging of steatotic phenotype; type: cell-based, human; settings: for IC50: Homo sapiens
[5] = iv, 1 mg/kg, IV 1 mg/kg, read-out: T 1/2 (IV) (converted)
[6] = po, 5 mg/kg, PO 5 mg/kg in PBS, read-out: T 1/2 (PO) (converted)
[7] = IV 1 mg/kg, read-out: AUC Inf (IV)
[8] = IV 1 mg/kg, read-out: AUC last (IV)
[9] = IV 1 mg/kg, read-out: MRT Inf_obs (IV)
[10] = PO 5 mg/kg in PBS, read-out: AUC Inf (PO)
[11] = PO 5 mg/kg in PBS, read-out: AUC last (PO)
[12] = PO 5 mg/kg in PBS, read-out: MRT Inf_obs (PO)
[13] = PH5CH8 liver cells, 10-point dose response between 1μM and 1.9nM, read-out: IC50 (uM), inhibition of steatotic phenotype in DNL assay

In the case of `CC(C)(C)c1cc(C(=O)Nc2ccc(C(=O)O)cc2Cl)c(O)c(C(C)(C)C)c1` [Compound 600453, 3-Chloro-4-[(3,5-di-tert-butyl-2-hydroxybenzene)amido]benzoic acid], the “AUC _%Extrap_obs (IV)” value ([1]; IV 1 mg/kg) is reported as 0.50 +/-0.114%, the AUCl ast/D (IV) ([1]; IV 1 mg/kg) is reported as 5400 ± 683 ng·kg·h/mL/mg and the “V ss_obs” value ([1]; IV 1 mg/kg) is reported as 0.60 ± 0.076 L/kg. The “AUC _%Extrap_obs (PO)” value ([1]; PO 5 mg/kg in PBS) was 2.22 +/- 1.36%, the AUC last / D (PO) ([1]; PO 5 mg/kg in PBS) was 3390 ± 551 ng·kg·h/mL/mg and the “T 1/2 (PO)” value ([1]; PO 5 mg/kg in PBS, 5 mg/kg) was 3.91 ± 0.75 h. For the same compound, the “F (oral bioavailability)” value [1] was 63.91 +/- 10.5%, the half-life [1, 5] was 3.68 ± 0.13 h and the Cmax ([1]; po, 5 mg/kg, PO 5 mg/kg in PBS) was 2050 ± 558 ng/mL. It also gave a half-life [1, 6] of 3.9 h, a bioavailability ([1]; po, 5 mg/kg) of 64% and a C0 ([1]; IV 1 mg/kg) of 2816 ± 7.02 ng/mL. It also gave an AUC(0-inf) [1, 7] of 5420 ± 689 ng·h/mL, an AUC(0-t) [1, 8] of 5400 ± 683 ng·h/mL and a clearance ([1]; IV 1 mg/kg) of 3.11 ± 0.42 mL/min/kg. For the same compound, the MRT inf [1, 9] was 3.22 ± 0.32 h, the Tmax ([1]; PO 5 mg/kg in PBS) was 4 h and the AUC(0-inf) [1, 10] was 17300 ± 2850 ng·h/mL. For the same compound, the AUC(0-t) [1, 11] was 16900 ± 2750 ng·h/mL, the MRT inf [1, 12] was 7.4 ± 0.44 h and the “concentration dependence of OCR change” value ([2]; four concentrations) was “significantly decreased OCR at all concentrations above 300nM”. The “Mean Revertant Colony Counts TA-100 SP9+” value ([3]; 1.5 ug/Well) was 17.3, the “Mean Revertant Colony Counts TA-100 S9-” value ([3]; 1.5 ug/Well) was 35.0 and the “Mean Revertant Colony Counts TA-100 SP9+” value ([3]; 4 ug/Well) was 21.3. For the same compound, the “Mean Revertant Colony Counts TA-100 S9-” value ([3]; 4 ug/Well) was 30.0, the “Mean Revertant Colony Counts TA-100 SP9+” value ([3]; 10 ug/Well) was 27.0 and the “Mean Revertant Colony Counts TA-100 S9-” value ([3]; 10 ug/Well) was 33.3. For the same compound, the “Mean Revertant Colony Counts TA-100 SP9+” value ([3]; 25 ug/Well) was 34.0, the “Mean Revertant Colony Counts TA-100 S9-” value ([3]; 25 ug/Well) was 24.0 and the “Mean Revertant Colony Counts TA-100 SP9+” value ([3]; 64 ug/Well) was 31.7. For the same compound, the “Mean Revertant Colony Counts TA-100 S9-” value ([3]; 64 ug/Well) was 26.3, the “Mean Revertant Colony Counts TA-100 SP9+” value ([3]; 160 ug/Well) was 24.3 and the “Mean Revertant Colony Counts TA-100 S9-” value ([3]; 160 ug/Well) was 21.3. For the same compound, the “Mean Revertant Colony Counts TA-100 SP9+” value ([3]; 400 ug/Well) was 29.3, the “Mean Revertant Colony Counts TA-100 S9-” value ([3]; 400 ug/Well) was 8.0 and the “Mean Revertant Colony Counts TA-100 SP9+” value ([3]; 1000 ug/Well) was 15.7. For the same compound, the “Mean Revertant Colony Counts TA-100 S9-” value ([3]; 1000 ug/Well) was 2.7, the “fold increase in the mean number of revertant colonies, TA100” value [3] was less than 2 fold and the “Remaining Percentage of 60 min (%), Human, Tested Sample” value [4] was 58.8%. For the same compound, the “Remaining Percentage of 60 min (%), Human, Negative Control” value [4] was 92.2%, the “Remaining Percentage of 60 min (%), Human, Heat-inactivated Control” value [4] was 93.7% and the IC50 (PH5CH8 liver cells; [13]) was 0.14 µM. The IC50 (PH5CH8 liver cells; S1 Table, SAR for N-Substituted Phenylbenzamides, read-out: IC50) was 0.091 µM and the Active/Inactive (PH5CH8 liver cells; S1 Table, SAR for N-Substituted Phenylbenzamides) was “Active”.

With `CC(C)(C)c1ccc(O)c(C(=O)Nc2cc(C(=O)O)ccc2Cl)c1` [Compound 600494, 3-{[2-Hydroxy-5-(tert-butyl)benzene]amido}-4chloro-benzoic acid] the “AUC _%Extrap_obs (IV)” value ([1]; IV 1 mg/kg) was 1.23 +/- 1.05%, the AUCl ast/D (IV) ([1]; IV 1 mg/kg) was 18200 ± 1190 ng·kg·h/mL/mg and the “V ss_obs” value ([1]; IV 1 mg/kg) was 0.13 ± 0.035 L/kg. For the same compound, the “AUC _%Extrap_obs (PO)” value ([1]; PO 5 mg/kg in PBS) was 3.64 +/-4.73%, the AUC last / D (PO) ([1]; PO 5 mg/kg in PBS) was 2490 ± 542 ng·kg·h/mL/mg and the “T 1/2 (PO)” value ([1]; PO 5 mg/kg in PBS, 5 mg/kg) was 4.6 h and 4.58 ± 2.61 h. The “F (oral bioavailability)” value [1] was 14.17 +/- 3.8%, the half-life [1, 5] was 5.36 ± 2 h and the Cmax ([1]; po, 5 mg/kg, PO 5 mg/kg in PBS) was 1850 ± 674 ng/mL. The half-life [1, 6] was 5.3 h, the bioavailability ([1]; po, 5 mg/kg) was 14% and the C0 ([1]; IV 1 mg/kg) was 22900 ± 4300 ng/mL. It also gave an AUC(0-inf) [1, 7] of 18400 ± 1400 ng·h/mL, an AUC(0-t) [1, 8] of 18200 ± 1190 ng·h/mL and a clearance ([1]; IV 1 mg/kg) of 0.91 ± 0.068 mL/min/kg. It also gave an MRT inf [1, 9] of 2.39 ± 0.69 h, a Tmax ([1]; PO 5 mg/kg in PBS) of 5.33 ± 2.31 h and an AUC(0-inf) [1, 10] of 13000 ± 3520 ng·h/mL. The AUC(0-t) [1, 11] was 12400 ± 2710 ng·h/mL, the MRT inf [1, 12] was 7.89 ± 1.49 h and the “change in respiration / oxygen consumption rate (OCR)” value ([2]; compared to DMSO control, 2 hours) was “no change in respiration”. The “Mean Revertant Colony Counts TA-100 SP9+” value ([3]; 1.5 ug/Well) was 20.7, the “Mean Revertant Colony Counts TA-100 S9-” value ([3]; 1.5 ug/Well) was 30.0 and the “Mean Revertant Colony Counts TA-100 SP9+” value ([3]; 4 ug/Well) was 17.3. The “Mean Revertant Colony Counts TA-100 S9-” value ([3]; 4 ug/Well) was 27.0, the “Mean Revertant Colony Counts TA-100 SP9+” value ([3]; 10 ug/Well) was 18.0 and the “Mean Revertant Colony Counts TA-100 S9-” value ([3]; 10 ug/Well) was 25.0. For the same compound, the “Mean Revertant Colony Counts TA-100 SP9+” value ([3]; 25 ug/Well) was 22.0, the “Mean Revertant Colony Counts TA-100 S9-” value ([3]; 25 ug/Well) was 24.0 and the “Mean Revertant Colony Counts TA-100 SP9+” value ([3]; 64 ug/Well) was 16.3. For the same compound, the “Mean Revertant Colony Counts TA-100 S9-” value ([3]; 64 ug/Well) was 33.0, the “Mean Revertant Colony Counts TA-100 SP9+” value ([3]; 160 ug/Well) was 21.0 and the “Mean Revertant Colony Counts TA-100 S9-” value ([3]; 160 ug/Well) was 25.7. The “Mean Revertant Colony Counts TA-100 SP9+” value ([3]; 400 ug/Well) was 21.3, the “Mean Revertant Colony Counts TA-100 S9-” value ([3]; 400 ug/Well) was 22.3 and the “Mean Revertant Colony Counts TA-100 SP9+” value ([3]; 1000 ug/Well) was 20.3. The “Mean Revertant Colony Counts TA-100 S9-” value ([3]; 1000 ug/Well) was 17.7, the “fold increase in the mean number of revertant colonies, TA100” value [3] was less than 2 fold and the “Remaining Percentage of 60 min (%), Human, Tested Sample” value [4] was 99.4%. For the same compound, the “Remaining Percentage of 60 min (%), Human, Negative Control” value [4] was 92.8%, the “Remaining Percentage of 60 min (%), Human, Heat-inactivated Control” value [4] was 114.2% and the IC50 (PH5CH8 liver cells; [13]) was 0.004 µM. The IC50 (PH5CH8 liver cells; S1 Table. SAR for N-Substituted Phenylbenzamides, read-out: IC50) was 0.0039 µM and the Active/Inactive (PH5CH8 liver cells; S1 Table. SAR for N-Substituted Phenylbenzamides) was “Active”.
